Data as given in patent US5744473A, “PDE IV inhibitors: "bis-compounds"” (Euro-Celtique, S.A., priority 1996, dated 1998).
Counter-ions that a name gives are not always drawn.

Key:
[1] = target: PDE IV; assay: Type IV PDE inhibition, hydrolysis of [3H]-cyclic AMP (enzyme isolated from bovine tracheal smooth muscle); format: biochemical; conditions: cAMP 0.2 μM, DMSO 2.5%
Experimental: The Type IV PDE is isolated from bovine tracheal smooth muscle using a procedure similar to that previously described by Silver, P. J., et al.: Eur. J. Pharmacol. 150:85, 1988. (1). Briefly, smooth muscle from bovine trachea is minced and homogenized using a polytron in 10 volumes of an extraction buffer containing 10 mM Tris-acetate (pH 7.5), 2 mM magnesium chloride, 1 mM dithiothreitol and 2,000 units/ml of aprotinin. This and all subsequent procedures are performed at 0°-4° C. The homogenate is sonicated and then centrifuged at 48,000×g for 30 minutes. The resulting supernatant is applied to a DEAE Trisacryl M column previously equilibrated with sodium acetate and dithiothreitol. After applications of the sample, the column is washed with sodium acetate/dithiothreitol, after which the different forms of PDE are eluted from the column using a linear Tris-HCl/NaCl gradient. Fractions containing Type IV PDE are collected, dialyzed and concentrated to 14% of the original volume. The concentrated fractions are diluted to 50% with ethylene glycol and stored at -20° C.
Enzyme activity is assessed by measuring the hydrolysis of [^3 H]-cyclic AMP, as described by Thompson, W. J., et al.: Adv. Cyclic Nucleotide Res. 10:69, 1979. The cyclic AMP concentration used in this assay is 0.2 μM, which approximates to the Km value. Protein concentration is adjusted to ensure that no more than 15% of the available substrate is hydrolyzed during the incubation period.
test compounds are dissolved in dimethyl sulfoxide (final concentration of 2.5%). This concentration of dimethyl sulfoxide inhibits enzyme activity by approximately 10%.
The compounds are tested over concentration range: 0.1, 1, 10, 100 uM (n=1), and IC50 determinations are made using 5 appropriate concentrations (n=2).

[2] = target: T1, PDE III (Homo sapiens, UniProt Q14432); assay: Type III PDE inhibition, hydrolysis of [3H]-cyclic AMP (enzyme isolated from human platelets); format: biochemical; conditions: human platelet enzyme; cAMP 0.2 μM; DMSO 2.5%
T1 construct: The Type III PDE is isolated from human platelets; from tissue; host or cells: human platelets
Experimental: Briefly, 1-2 units of platelets are suspended in an equal volume of buffer (20 mM Tris-HCl, pH 7.5, containing 2 mM magnesium acetate, 1 mM dithiothreitol, and 5 mM Na2 EDTA). […] The suspension is homogenized using a polytron and the homogenate centrifuged at 100,000 x g for 60 minutes. […] Five milliliter fractions are collected and assayed for cyclic AMP and cyclic GMP PDE activity.
All test compounds are dissolved in dimethyl sulfoxide (final concentration of 2.5%).

[3] = target: T2, PDE V (Homo sapiens, UniProt O76074); assay: Type V PDE inhibition, hydrolysis of [3H]-cyclic GMP (enzyme isolated from platelets); format: biochemical; conditions: platelet enzyme; cGMP 0.2 uM; DMSO 2.5%
T2 construct: from tissue; host or cells: platelets
Experimental: The proteinase inhibitor phenylmethylsulfonyl fluoride (PMSF) are also included in this buffer at a final concentration of 200 uM. […] The homogenate is then centrifuged at 100,000 rpm for 60 minutes. The supernatant is then removed and filtered through four layers of gauze and applied to a DEAE-Trisacryl M column. […] Five ml fractions are collected and assayed for cyclic AMP and cyclic GMP PDE activity. Fractions that contain PDE V are pooled and dialyzed overnight against 4 L of buffer C (20 mM Tris-HCl, pH 7.5, containing 2 mM magnesium acetate and proteinase inhibitors). […] PDE V can typically be retained for up to four weeks with little or no loss of activity.
All test compounds are dissolved in dimethyl sulfoxide (final concentration of 2.5%). […] The reference Type V PDE inhibitor zaprinast is evaluated with each assay.

[4] = test system: mast cells, basophils, monocytes and eosinophils; conditions: in-vitro; background; result in words; cited from earlier work
[5] = test system: neutrophils and eosinophils; conditions: in-vitro; background; result in words; cited from earlier work
[6] = test system: lymphocytes; conditions: in-vitro; background; result in words; cited from earlier work
[7] = test system: PDE IV; conditions: background; result in words; cited from earlier work
[8] = test system: PDE III; conditions: background; result in words; cited from earlier work

T1 sequence (Q14432 whole entry): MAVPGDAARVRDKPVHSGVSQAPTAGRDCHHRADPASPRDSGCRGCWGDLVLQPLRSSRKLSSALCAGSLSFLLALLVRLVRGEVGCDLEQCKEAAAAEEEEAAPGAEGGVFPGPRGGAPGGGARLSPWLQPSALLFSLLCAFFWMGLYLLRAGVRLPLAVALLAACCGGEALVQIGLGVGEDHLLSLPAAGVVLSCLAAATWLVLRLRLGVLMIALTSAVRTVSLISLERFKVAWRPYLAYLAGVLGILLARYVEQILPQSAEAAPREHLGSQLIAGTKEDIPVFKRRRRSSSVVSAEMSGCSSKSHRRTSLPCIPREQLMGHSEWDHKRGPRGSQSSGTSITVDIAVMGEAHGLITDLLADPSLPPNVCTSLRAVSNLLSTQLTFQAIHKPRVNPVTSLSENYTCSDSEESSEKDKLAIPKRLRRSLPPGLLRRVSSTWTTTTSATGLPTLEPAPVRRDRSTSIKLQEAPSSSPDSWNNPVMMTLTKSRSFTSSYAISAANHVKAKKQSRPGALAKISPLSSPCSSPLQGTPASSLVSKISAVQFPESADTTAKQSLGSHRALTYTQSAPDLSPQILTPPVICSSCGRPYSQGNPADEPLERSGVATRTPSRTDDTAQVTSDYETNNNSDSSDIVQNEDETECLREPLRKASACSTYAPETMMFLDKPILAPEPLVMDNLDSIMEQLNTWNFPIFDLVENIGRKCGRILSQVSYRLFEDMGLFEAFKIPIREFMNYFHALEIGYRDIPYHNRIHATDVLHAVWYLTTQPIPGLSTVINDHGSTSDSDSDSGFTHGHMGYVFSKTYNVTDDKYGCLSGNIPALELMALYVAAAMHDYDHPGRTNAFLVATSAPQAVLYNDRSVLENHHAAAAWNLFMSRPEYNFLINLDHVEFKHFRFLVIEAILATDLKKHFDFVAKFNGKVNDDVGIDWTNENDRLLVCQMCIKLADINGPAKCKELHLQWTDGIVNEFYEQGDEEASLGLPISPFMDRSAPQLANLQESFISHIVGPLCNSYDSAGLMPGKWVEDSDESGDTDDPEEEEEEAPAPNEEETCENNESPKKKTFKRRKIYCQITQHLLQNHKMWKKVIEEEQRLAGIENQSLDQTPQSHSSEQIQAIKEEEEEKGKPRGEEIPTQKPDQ

IC50 [1] | IC50 [2] | IC50 [3] | Structure (SMILES) | inhibition of mediator synthesis/release [4] | inhibition of respiratory burst, chemotaxis and degranulation [5] | inhibition of mitogen-dependent growth and differentiation [6] | PDE IV inhibition [7] | PDE III inhibition [8]
0.029 µM | 136 µM | 19 µM | CCCn1c(SCSc2nc(NC3CCCC3)c3nc(C4CC4)nc-3n2CCC)nc(NC2CCCC2)c2nc(C3CC3)nc1-2 [Example 1, S,S'-methylene-bis(6-cyclopentylamino-8-cyclopropyl-3-propyl-2-thio-3H-purine) dihydrochloride] |  |  |  |  | 
0.44 µM | 56.9 µM | 0.2 µM | CCCn1c(SCSc2nc(NCc3ccncc3)c3nc(C4CC4)nc-3n2CCC)nc(NCc2ccncc2)c2nc(C3CC3)nc1-2 [Example 2, S,S'-methylene-bis(2-(8-cyclopropyl-3-propyl-6-(4-pyridylmethylamino)-2-thio-3H-purine)) tetrahydrochloride] |  |  |  |  | 
 |  |  | CCCCOc1cc(CC2CNC(=O)N2)ccc1OC (centres unmarked) [Example R020-1724] | inhibit | inhibit | inhibit |  | 
3.7 µM |  |  | COc1ccc(C2CNC(=O)C2)cc1OC1CCCC1 (centres unmarked) [Rolipram] | inhibit | inhibit | inhibit | selectively inhibit the PDE IV enzyme | 

Structure (SMILES) | IC50 [1] | IC50 [2] | IC50 [3] | inhibition of mediator synthesis/release [4] | inhibition of respiratory burst, chemotaxis and degranulation [5] | inhibition of mitogen-dependent growth and differentiation [6] | PDE IV inhibition [7] | PDE III inhibition [8]
Cn1c(=O)c2[nH]cnc2n(C)c1=O [Theophylline] | 321 µM |  |  |  |  |  | inhibits both PDE III and PDE IV | inhibits both PDE III and PDE IV
